Assay results: patent US9303042B2, “Triazolothienopyrimidine compound inhibitors of urea transporters and methods of using inhibitors” (The Regents of the University of California, priority 2012, dated 2016)

Legend:
[1] = target: T1, UT-B (Mus musculus, UniProt Q8VHL0); experiment: Transepithelial urea transport in MDCK cells stably expressing UT-B; format: cell-based; conditions: phloretin 100 μM
T1 sequence (Q8VHL0 1-384): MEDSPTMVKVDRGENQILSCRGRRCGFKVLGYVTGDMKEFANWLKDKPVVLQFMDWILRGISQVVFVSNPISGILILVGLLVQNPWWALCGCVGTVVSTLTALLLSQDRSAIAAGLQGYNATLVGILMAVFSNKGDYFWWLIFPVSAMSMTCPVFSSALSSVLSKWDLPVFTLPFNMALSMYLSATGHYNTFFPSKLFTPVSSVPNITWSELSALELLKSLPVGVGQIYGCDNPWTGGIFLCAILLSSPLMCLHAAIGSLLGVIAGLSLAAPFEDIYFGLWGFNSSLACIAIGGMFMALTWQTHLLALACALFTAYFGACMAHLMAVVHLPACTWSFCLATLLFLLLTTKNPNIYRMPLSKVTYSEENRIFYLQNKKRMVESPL
Procedure: (§1) UT-B selectivity and cytotoxicity were studied. Because of sequence similarities between UT-B and UT-A isoforms, UT-A inhibition was measured. Transepithelial urea transport was measured in MDCK cells stably expressing UT-A1, UT-A3, and UT-B. UT-A1 and UT-A3 are cAMP-regulated urea transporters expressed in kidney tubule epithelia (see, e.g., Frohlich et al., Am. J. Physiol. Cell Physiol. 291:C600-606 (2006); Tickle et al., Am. J. Physiol. Regul. Integr. Comp Physiol 0.297: R323-329 (2009); Stewart et al., Am. J. Physiol. Renal Physiol. 292:F1157-63 (2006)). MDCK cells were cultured on collagen-coated porous filters for measurement of urea accumulation in the apical solution following addition of urea to the basolateral solution.
(§2) cDNAs encoding mouse UT-A3 and UT-B were cloned into pcDNA3.1 and used to generate stably transfected MDCK cell lines. MDCK cells stably expressing rat UT-A1 (MDCK-UT-A1) (see, e.g., Frohlich et al., supra) were obtained as described (see, e.g., Levin et al., FASEB J., supra). Cells were cultured in DMEM containing 10% FBS and 0.5 mg/mL G418. […] Urea flux in the basolateral-to-apical direction across unstimulated and forskolin-stimulated cell layers was measured in response to a 15-mM urea gradient. […]

[2] = target: T2, UT-A3 (Mus musculus, UniProt Q8R4T9); experiment: Transepithelial urea transport in MDCK cells stably expressing UT-A3; format: cell-based; conditions: phloretin 100 μM
T2 construct: expressed in transfected cells
T2 sequence (Q8R4T9 1-461 isoform Q8R4T9-3): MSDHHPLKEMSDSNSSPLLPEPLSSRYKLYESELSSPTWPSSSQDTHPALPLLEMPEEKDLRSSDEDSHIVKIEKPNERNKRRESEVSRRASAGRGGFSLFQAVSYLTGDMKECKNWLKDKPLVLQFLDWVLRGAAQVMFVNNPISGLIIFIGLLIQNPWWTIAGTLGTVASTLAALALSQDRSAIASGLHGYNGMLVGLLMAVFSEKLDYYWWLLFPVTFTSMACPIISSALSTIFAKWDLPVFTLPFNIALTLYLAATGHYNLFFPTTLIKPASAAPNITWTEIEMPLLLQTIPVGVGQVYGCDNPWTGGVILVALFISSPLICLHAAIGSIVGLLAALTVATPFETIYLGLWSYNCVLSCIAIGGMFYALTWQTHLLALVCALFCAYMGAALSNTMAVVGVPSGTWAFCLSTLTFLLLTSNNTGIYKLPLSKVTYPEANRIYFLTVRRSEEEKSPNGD
Procedure: as §1, §2

[3] = test system: UT; conditions: literature; cited from earlier work
[4] = target: T3, UT-A1 (Rattus norvegicus, UniProt Q62668); experiment: Transepithelial urea transport in MDCK cells stably expressing UT-A1; format: cell-based; conditions: phloretin 100 μM
T3 construct: expressed in transfected cells; host or cells: MDCK cells (MDCK-UT-A1), obtained as described in cited literature
T3 sequence (Q62668 1-929): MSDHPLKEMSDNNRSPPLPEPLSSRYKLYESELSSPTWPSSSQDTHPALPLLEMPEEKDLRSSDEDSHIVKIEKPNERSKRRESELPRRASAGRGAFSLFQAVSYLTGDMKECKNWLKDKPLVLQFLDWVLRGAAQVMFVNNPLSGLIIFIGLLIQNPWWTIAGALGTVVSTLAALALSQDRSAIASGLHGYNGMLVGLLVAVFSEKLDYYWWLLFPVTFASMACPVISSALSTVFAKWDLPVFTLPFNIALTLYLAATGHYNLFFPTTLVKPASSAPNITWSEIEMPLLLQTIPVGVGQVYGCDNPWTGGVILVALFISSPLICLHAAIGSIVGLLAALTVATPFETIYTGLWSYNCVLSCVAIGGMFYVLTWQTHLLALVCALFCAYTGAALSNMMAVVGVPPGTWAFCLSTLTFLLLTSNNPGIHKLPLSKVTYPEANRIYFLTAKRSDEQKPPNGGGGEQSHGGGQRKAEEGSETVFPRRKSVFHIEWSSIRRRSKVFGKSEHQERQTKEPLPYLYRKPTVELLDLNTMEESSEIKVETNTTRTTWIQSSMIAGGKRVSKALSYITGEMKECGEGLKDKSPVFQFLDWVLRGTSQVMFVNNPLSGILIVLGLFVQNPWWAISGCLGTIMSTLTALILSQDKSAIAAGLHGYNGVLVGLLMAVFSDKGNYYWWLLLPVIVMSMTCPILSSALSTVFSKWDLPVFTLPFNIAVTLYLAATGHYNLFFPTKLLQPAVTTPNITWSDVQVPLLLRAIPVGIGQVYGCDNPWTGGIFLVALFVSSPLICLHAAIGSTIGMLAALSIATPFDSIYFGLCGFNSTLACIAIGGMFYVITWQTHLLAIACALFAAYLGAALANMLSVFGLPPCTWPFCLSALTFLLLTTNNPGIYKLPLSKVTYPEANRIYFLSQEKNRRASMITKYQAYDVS
Procedure: as §1, §2

[5] = target: T4, TMEM16A (Homo sapiens, UniProt Q5XXA6); experiment: TMEM16A calcium-activated chloride conductance by short-circuit current; format: cell-based; conditions: 100 μM
T4 construct: expressed in transfected cells
T4 sequence (Q5XXA6 1-986): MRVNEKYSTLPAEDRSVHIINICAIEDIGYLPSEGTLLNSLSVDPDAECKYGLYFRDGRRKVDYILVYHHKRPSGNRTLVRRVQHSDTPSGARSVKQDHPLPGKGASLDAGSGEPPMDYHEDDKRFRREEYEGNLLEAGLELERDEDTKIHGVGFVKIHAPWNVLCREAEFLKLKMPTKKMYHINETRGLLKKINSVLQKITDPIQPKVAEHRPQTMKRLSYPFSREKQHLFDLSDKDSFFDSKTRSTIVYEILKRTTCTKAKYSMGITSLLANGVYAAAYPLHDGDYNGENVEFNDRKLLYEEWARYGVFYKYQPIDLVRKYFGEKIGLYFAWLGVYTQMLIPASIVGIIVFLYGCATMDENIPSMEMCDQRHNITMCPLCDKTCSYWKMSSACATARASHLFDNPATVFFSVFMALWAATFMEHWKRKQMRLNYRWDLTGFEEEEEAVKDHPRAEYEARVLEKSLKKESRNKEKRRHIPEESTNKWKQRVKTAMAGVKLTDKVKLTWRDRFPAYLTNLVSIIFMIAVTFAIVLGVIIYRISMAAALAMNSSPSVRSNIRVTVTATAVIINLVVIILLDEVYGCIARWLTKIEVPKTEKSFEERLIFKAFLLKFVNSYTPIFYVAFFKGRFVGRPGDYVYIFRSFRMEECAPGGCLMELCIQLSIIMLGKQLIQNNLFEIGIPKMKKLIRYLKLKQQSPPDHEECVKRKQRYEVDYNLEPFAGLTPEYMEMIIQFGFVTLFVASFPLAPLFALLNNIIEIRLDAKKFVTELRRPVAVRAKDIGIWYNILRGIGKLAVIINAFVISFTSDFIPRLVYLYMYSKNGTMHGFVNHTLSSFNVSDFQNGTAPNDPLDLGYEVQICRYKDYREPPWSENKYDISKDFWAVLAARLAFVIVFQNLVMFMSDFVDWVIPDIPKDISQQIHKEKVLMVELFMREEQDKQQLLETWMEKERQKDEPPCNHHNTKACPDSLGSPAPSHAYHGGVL
Procedure: CFTR chloride conductance was measured by short-circuit current analysis in Fisher rat thyroid (FRT) cells stably expressing CFTR, as described (see, e.g., Ma et al., J. Biol. Chem. (2002), supra). CFTR chloride conductance was stimulated by forskolin and inhibited by a thiazolidinone compound that inhibits CFTR (CFTRinh-172). TMEM16A calcium-activated chloride conductance was measured by short-circuit current analysis in FRT cells stably expressing TMEM16A, as described (see, e.g., Namkung et al., J. Biol. Chem. 286:2365-2374, 2011. TMEM16A was stimulated by ATP and inhibited by tannic acid (100 μM). Cytotoxicity was measured in MDCK using the MTT assay [3(4,5-dimethyl-thiazol-2-yl)-2,5-diphenyl tetrazolium bromide] by standard procedures.

ATP-induced current (TMEM16A) [5]	Structure (SMILES)	UT-facilitated urea transport (UT-B) [1]	UT-facilitated urea transport (UT-A3) [2]	concentration exhibiting activity [3]	UT-facilitated urea transport (UT-A1) [4]
–	O=C(CCc1ccc(O)cc1)c1c(O)cc(O)cc1O [phloretin, reference compound]	inhibited	inhibited	> 0.5 mM	inhibited
blocked	O=C(OC[C@H]1O[C@@H](OC(=O)c2cc(O)c(O)c(OC(=O)c3cc(O)c(O)c(O)c3)c2)[C@H](OC(=O)c2cc(O)c(O)c(OC(=O)c3cc(O)c(O)c(O)c3)c2)[C@@H](OC(=O)c2cc(O)c(O)c(OC(=O)c3cc(O)c(O)c(O)c3)c2)[C@@H]1OC(=O)c1cc(O)c(O)c(OC(=O)c2cc(O)c(O)c(O)c2)c1)c1cc(O)c(O)c(OC(=O)c2cc(O)c(O)c(O)c2)c1 [tannic acid, reference compound]	–	–	–	–
